Patent US9717737B2, “Vacuolin-1 as an inhibitor of autophagy and endosomal trafficking and the use thereof for inhibiting tumor progression” (The University of Hong Kong, priority 2014, dated 2017)

Assays:
[1] = tested on: RFP-GFP-LC3 expressing HeLa cells; test: RFP-GFP-LC3 (tfLC3) fluorescence image-based autophagy assay; type: cell-based
Excerpt: Prompted by the fact that many available autophagy chemical modulators lack either potency or specificity (Kimura et al., 2013), a fluorescence image-based assay was set up to screen small molecules affecting autophagy. HeLa cells, an autophagy competent cell line, were infected with lentiviruses carrying expression cassettes that encode RFP-GFP-LC3 (tfLC3) (Kimura et al., 2007). Thus, the LC3-II positive autophagosomes are labeled with both GFP and RFP signals shown as yellow puncta, and after fusion with lysosomes, autolysosomes are shown as red only puncta because GFP loses its fluorescence in acidic pH.
Next, a panel of small chemicals that are commercially available and have been previously shown to affect vesicle trafficking or organelle morphology were selected and screened for their effects on autophagy regulation in tfLC3 expressing HeLa cells (data not shown).

HeLa cells [2] = test: Immunofluorescence staining of GFP-LC3 puncta and RFP-Lamp1; type: cell-based; conditions: 1 μM
Description: Western blot and Immunofluorescence staining analyses—Both assays were performed as described previously (Lu et al., 2013).

HeLa cells [3] = test: GPN induced lysosomal Ca2+ release in Fura-2 loaded cells; type: cell-based; conditions: 1 μM pretreatment 5 hours, GPN 200 μM
Description: Intracellular Ca^2+ measurement—Cells were cultured in 24-well plates at the density of 7×10^4 cells/well in regular medium overnight and were labeled with 4 μM Fura-2 AM (Invitrogen) in regular HMSS at room temperature for 30 min. The cells were then washed with calcium-free HMSS containing 2 mM EGTA three times and incubated in the presence or absence of vacuolin-1 at room temperature for another 10 min. Cells were put on the stage of an Olympus inverted epifluorescence microscope and visualized using a 20× objective. Fluorescence images were obtained by alternate excitation at 340 nm and 380 nm with emission set at 510 nm. Images were collected by a CCD camera every 3 or 6 seconds and analyzed by Cell R imaging software.
Since lysosome is also a major intracellular Ca^2+ pool, and Ca^2+ and protons are tightly coupled in lysosomes (Morgan et al., 2011), it was also assessed whether vacuolin-1 treatment affects the lysosomal Ca^2+ content. Treatment of cells with glycyl-1-phenylalanine 2-naphthylamide (GPN) selectively disrupts the lysosomal membrane (Jadot et al., 2001), thereby releasing the lysosomal Ca^2+ (Srinivas et al., 2002).

[4] = target: T1, V-ATPase (purified V1V0 holoenzyme) (Manduca sexta, UniProt P31400); test: In vitro V-ATPase assay; type: biochemical, M. sexta
T1 construct: Assays contained 3 μg of purified V1V0 holoenzyme; from tissue; host or cells: Fifth instar larvae of M. sexta; The midgut goblet cell apical membrane is named only in the title of the cited Wieczorek et al. 1990, not in the method text
T1 sequence (P31400 whole entry): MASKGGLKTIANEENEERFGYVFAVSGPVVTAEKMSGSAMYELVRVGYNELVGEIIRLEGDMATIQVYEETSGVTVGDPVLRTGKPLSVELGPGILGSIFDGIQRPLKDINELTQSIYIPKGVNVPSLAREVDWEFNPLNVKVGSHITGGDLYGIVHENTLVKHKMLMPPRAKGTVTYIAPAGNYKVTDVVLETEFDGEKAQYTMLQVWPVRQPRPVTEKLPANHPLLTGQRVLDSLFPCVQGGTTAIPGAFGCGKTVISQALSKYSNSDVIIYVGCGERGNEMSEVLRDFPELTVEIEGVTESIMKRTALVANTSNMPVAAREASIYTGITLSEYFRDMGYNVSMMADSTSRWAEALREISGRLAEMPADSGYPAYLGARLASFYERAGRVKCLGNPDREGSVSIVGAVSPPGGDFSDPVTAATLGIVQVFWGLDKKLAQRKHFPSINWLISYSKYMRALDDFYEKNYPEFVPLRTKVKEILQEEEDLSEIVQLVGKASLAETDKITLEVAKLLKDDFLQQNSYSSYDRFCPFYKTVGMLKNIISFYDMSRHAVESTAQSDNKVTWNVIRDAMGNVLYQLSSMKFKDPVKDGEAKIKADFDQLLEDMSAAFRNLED
Description: V-ATPase assay—Fifth instar larvae of M. sexta (Lepidoptera, Sphingidae), weighing 6-8 g, were reared under long day conditions (16 h of light) at 27° C. using the gypsy moth diet (MP Biomedicals, Germany). The purification of the V1VO holoenzyme was performed as previously described (Huss et al., 2002). Activity assays were performed in triplicate in a final volume of 160 μL and at a pH of 8.1. Assays contained 3 μg of purified V1V0 holoenzyme, 50 mM Tris-Mops, 3 mM 2-mercaptoethanol, 1 mM MgCl2, 20 mM KCl, 0.003% C12E10, 20 mM NaCl, and 3 mM Tris-HCl. After 10 min of preincubation at 30° C., with or without inhibitors, 1 mM Tris-ATP was added and after an incubation for 2 min at 30° C. the reaction was stopped by freezing the samples in liquid nitrogen. Inorganic phosphate was determined as previously described (Wieczorek et al., 1990).

Rab5 = target: T2, Rab5 (Homo sapiens, UniProt P20339); test: GST-tagged Rabaptin5 pull-down assay for active Rab5; type: cell-based; conditions: HeLa cells, 1 μM
T2 construct: results of a GST-tagged Rabaptin5 pull-down assay in HeLa cells showing active Rab5 in cells treated with vacuolin-1 (1 μM); endogenous in cells; host or cells: HeLa cells
T2 sequence (P20339 1-215): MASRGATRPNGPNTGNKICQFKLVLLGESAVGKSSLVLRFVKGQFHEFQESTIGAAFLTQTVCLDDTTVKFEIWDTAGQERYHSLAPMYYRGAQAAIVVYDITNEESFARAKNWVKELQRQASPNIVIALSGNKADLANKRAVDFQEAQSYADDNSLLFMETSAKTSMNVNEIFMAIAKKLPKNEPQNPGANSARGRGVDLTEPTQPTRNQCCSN
Description: Glutathione S-Transferase (GST) Pull-Down Assay—Cells were collected and lysed in an ice-cold EBC lysis buffer described previously. Lysates were clarified by centrifugation at 13,000 g for 10 min at 4° C., and equal amount of protein (500 μg) from each supernatant was incubated with 30 μl of GST-RSBD bound to the 30 μl glutathione—Sepharose beads for 1 h at 4° C. on a rotating mixer. The beads was subsequently washed and resuspended in the standard SDS-sample buffer, boiled and subjected to SDS-PAGE (15% gel), followed by immunoblot analysis with the anti-Rab5 mAb.

CNE-1 and HONE-1 cells = test: Migration and invasiveness of nasopharyngeal carcinoma cells; type: cell-based, human
Description: Although CQ has already been applied to treat a wide spectrum of human cancers, CQ induces ocular or renal toxicity and easily triggers drug resistance (Kimura et al., 2013). […] We first investigated the anti-tumor effects of vacuolin-1 in two nasopharyngeal carcinoma cell lines, CNE-1 and HONE-1. […] Alternatively, colony formation assay was performed to assess whether vacuolin-1 affects the ability of a single tumor cell to grow into a colony. […] We subsequently performed wound healing assay to assess whether vacuolin-1 affects the migration of tumor cells. […] Obviously, vacuolin-1 is an efficient anti-tumor agent in vitro.

[5] = tested on: human lung cancer stem cells (hLCSCs); test: Autophagy inhibition in lung cancer stem cells; type: cell-based
Excerpt: (§1) Cancer stem cells (CSCs), a subpopulation of cells within tumors, actually drive tumor growth and recurrence. CSCs are resistant to many current cancer treatments, including chemo- and radiation therapy, thus they can survive these therapy to regenerate new tumors. […] Therefore, it is of great interest to assess the anti-tumor effects of vacuolin-1 on CSCs.

[6] = tested on: human lung cancer stem cells (hLCSCs); test: Colony formation of hLCSCs; type: cell-based; conditions: >10 μM
Excerpt: as §1

[7] = tested on: human lung cancer stem cells (hLCSCs); test: Tumor sphere formation of hLCSCs; type: cell-based; conditions: >10 μM
Excerpt: as §1

human cancer cell lines = test: Combination with chemotherapy drugs in human cancer cell lines (FIG. 13); type: cell-based

Ic1cccc(/C=N/Nc2nc(N3CCOCC3)nc(N(c3ccccc3)c3ccccc3)n2)c1 [vacuolin-1]
LC3 puncta (yellow = autophagosomes, red only = autolysosomes) [1]: potently induced LC3 yellow puncta, not red puncta | GFP-LC3 puncta (HeLa cells [2]): greatly increased | co-localization of GFP-LC3 puncta with Lamp1 (HeLa cells [2]): did not co-localize with Lamp1 | GPN induced lysosomal Ca2+ release (HeLa cells [3]): significantly lowered | V-ATPase activity in vitro [4]: little effects | Rab5 activation (Rab5-GTP pull-down) (Rab5): markedly activated Rab5 | migration (CNE-1 and HONE-1 cells; FIG. 16D): markedly inhibited | invasiveness (CNE-1 and HONE-1 cells; FIG. 16E): markedly inhibited | autophagy inhibition potency in hLCSCs relative to other tumor cell lines (times less potent) [5]: 10 times | colony formation of hLCSCs [6]: almost completely inhibited | tumor sphere formation of hLCSCs [7]: almost completely inhibited | colony formation efficiency of cancer cells, combination with chemotherapy drugs (human cancer cell lines; FIG. 13B): greatly decreases | anti-tumor effects of chemotherapy drugs in combination (human cancer cell lines; human cancer cell lines, FIG. 13A): potently enhances
